Measured values published in patent publication US8222218B2, “Cyclopropanated carbohydrates” (Seton Hall University, priority 2008, dated 2012).
Where two headings read alike, the source gives them in different places.

Key:
[1] = Acute toxicity, minimal motor impairment (rotorod), mice; assay type: in vivo; settings: for TOX 30 0.5 h (animals toxic/tested) / TOX 30 4 h (animals toxic/tested) / TOX 100 0.5 h (animals toxic/tested) / TOX 100 4 h (animals toxic/tested) / TOX 300 0.5 h (animals toxic/tested) / TOX 300 4 h (animals toxic/tested): mice, rotorod; for TOX 30 0.5 h (animals toxic/tested) / TOX 30 4 h (animals toxic/tested): 30 mg/kg; for TOX 100 0.5 h (animals toxic/tested) / TOX 100 4 h (animals toxic/tested): 100 mg/kg; for TOX 300 0.5 h (animals toxic/tested) / TOX 300 4 h (animals toxic/tested): 300 mg/kg; for minimal motor impairment: at same time point / dose as observed activity
Method: (§1) Toxicity was measured using the minimal motor impairment test described below.
Animals are monitored for overt signs of impaired neurological or muscular function to assess a compound's toxicity. In mice, the rotorod procedure is used to disclose minimal muscular or neurological impairment. When a mouse is placed on a rotating rod (6 rpm), the animal can maintain its equilibrium for long periods of time. The animal is considered toxic if it falls off the rotating rod three times during a 1 minute period. In rats, minimal motor deficit is indicated by ataxia, which is manifested by an abnormal, uncoordinated gait.

[2] = tested on: metrazole-induced clonic seizures; assay: Subcutaneous Metrazole Seizure Threshold Test (scMET), mice; assay type: in vivo; settings: mice; for responders at 30 mg/kg / responders at 100 mg/kg / responders at 300 mg/kg: Mus musculus, sc
Method: (§2) The subcutaneous injection of metrazole, which is a convulsant, produces clonic seizures in laboratory animals. The scMET test is designed to identify compounds that raise the seizure threshold of an animal. Mice are pretreated with test compound at 30, 100, and 300 mg/kg doses in a similar manner to the MES test. Rats are treated with a 50 mg/kg dose (p.o.). At the previously determined TPE of the test compound, the dose of metrazole that will induce convulsions in 97% of animals (CD97: 85 mg/kg mice) is injected into the loose fold of the skin in the midline of the neck. The animals are placed in isolation cages to minimize stress and observed for the next 30 minutes for the presence or absence of seizures. An episode of clonic spasms (approximately 3-5 seconds) of the fore and/or hindlimbs, jaws or vibrissae is taken as the endpoint.
(§3) Male and female albino CF1 mice (18-25 g, Charles River, Portage, Mich.) and male albino Sprague-Dawley rats (275-300 g, kindling test; 100-150 g all other tests; Charles River, Raleigh, N.C.) were used as experimental animals.

MES-induced seizures = assay: Maximal Electroshock Seizure (MES) test, mice; assay type: in vivo; settings: mice, i.p.; for responders at 30 mg/kg / responders at 100 mg/kg / responders at 300 mg/kg: Mus musculus, ip
Description: (§4) The MES test is a model for generalized tonic-clonic seizures. The seizures are highly reproducible and electrophysiologically consistent with human seizures. The test provides information about a compound's ability to prevent the spread of seizure when all neuronal circuits of the brain are maximally active. 60 Hz of alternating current (50 mA in mice, 150 mA in rats) is applied for 2 seconds via corneal electrodes that have been treated with an electrolyte solution containing an anesthetic (0.5% tetracaine HCl). Mice are tested at a variety of intervals after an i.p. injection of […] solution of the test compound (commonly in a 0.5% solution of methylcellulose) at 30, 100, and 300 mg/kg doses. Rats are examined after a 30 mg/kg (per os, p.o.) dose that is applied in a volume of 0.04 mL/g. An animal is considered “protected” from MES-induced seizures upon removal of the hind limb extensor component of the seizure.
as §3

seizures = assay: In vivo anticonvulsant screening (MES, scMET, minimal clonic seizure), summary in words; design: species or system rat, mouse; settings: summary of Table 2
Method: as §1, §4, §2
(§5) The minimal clonic seizure (6 Hz) test, like the MES test, is used to assess a compound's ability to protect against electrically-induced seizures. The minimal clonic (6 Hz) seizure test uses a lower frequency (6 Hz) and a longer duration of stimulation (3 seconds) than the MES test. Test compounds are pre-administered to mice via i.p. injection. At varying times, individual mice (four per time point) are challenged with sufficient current via corneal electrodes to elicit a psychomotor seizure in 97% of animals (32 mA for 3 second). Untreated mice will display seizure characterized by a minimal clonic phase followed by stereotyped, automatistic behaviors described originally as being similar to the aura of human patients with partial seizures. Animals not displaying this behavior are considered to be protected.

[3] = tested on: electrically-induced psychomotor seizure (6 Hz); assay: Minimal Clonic Seizure (6 Hz) test, mice; assay type: in vivo; settings: i.p., 100 mg/kg
Method: as §1, §5, §3

[4] = 30 mg/kg, 0.4 h, read-out: scMET 30 0.4 h (animals protected/tested)
[5] = 30 mg/kg, 0.5 h, read-out: scMET 30 0.5 h (animals protected/tested)
[6] = 100 mg/kg, 0.4 h, read-out: scMET 100 0.4 h (animals protected/tested)
[7] = 100 mg/kg, 0.5 h, read-out: scMET 100 0.5 h (animals protected/tested)
[8] = 300 mg/kg, 0.4 h, read-out: scMET 300 0.4 h (animals protected/tested)
[9] = 300 mg/kg, 0.5 h, read-out: scMET 300 0.5 h (animals protected/tested)
[10] = 30 mg/kg, 0.5 h, read-out: MES 30 0.5 h (animals protected/tested)
[11] = 30 mg/kg, 4 h, read-out: MES 30 4 h (animals protected/tested)
[12] = 100 mg/kg, 0.5 h, read-out: MES 100 0.5 h (animals protected/tested)
[13] = 100 mg/kg, 4 h, read-out: MES 100 4 h (animals protected/tested)
[14] = 300 mg/kg, 0.5 h, read-out: MES 300 0.5 h (animals protected/tested)
[15] = 300 mg/kg, 4 h, read-out: MES 300 4 h (animals protected/tested)

With `CCOC(=O)C1[C@@H]2[C@@H](OS(N)(=O)=O)[C@@H]3O[C@H](c4ccc(OC)cc4)OC[C@H]3O[C@H]12` (stereo partly drawn) [Compound 17b, ethyl (2R,4aR,5aS,6aS,7R,7aR)-2-(4-methoxyphenyl)-7(sulfamoyloxy)hexahydro-4H-cyclopropa[5,6]pyrano[3,2-d][1,3]dioxine-6-carboxylate] the “TOX 30 0.5 h (animals toxic/tested)” value [1] was 0/4, the “TOX 30 4 h (animals toxic/tested)” value [1] was 0/2 and the “TOX 100 0.5 h (animals toxic/tested)” value [1] was 0/8. For the same molecule, the “TOX 100 4 h (animals toxic/tested)” value [1] was 0/4, the “TOX 300 0.5 h (animals toxic/tested)” value [1] was 2/4 and the “TOX 300 4 h (animals toxic/tested)” value [1] was 0/2. For the same molecule, the responders at 30 mg/kg [2, 4] was 0%, the responders at 30 mg/kg [2, 5] was 0% and the responders at 100 mg/kg [2, 6] was 0%. It also gave a responders at 100 mg/kg [2, 7] of 0%, a responders at 300 mg/kg [2, 8] of 0% and a responders at 300 mg/kg [2, 9] of 0%. For the same molecule, the responders at 30 mg/kg (MES-induced seizures; [10]) was 0%, the responders at 30 mg/kg (MES-induced seizures; [11]) was 0% and the responders at 100 mg/kg (MES-induced seizures; [12]) was 0%. For the same molecule, the responders at 100 mg/kg (MES-induced seizures; [13]) was 0%, the responders at 300 mg/kg (MES-induced seizures; [14]) was 0% and the responders at 300 mg/kg (MES-induced seizures; [15]) was 0%. For the same molecule, the “anticonvulsant activity” value (seizures) was “anticonvulsant activity”, the “6 Hz 100 0.25 h (animals protected/tested)” value [3] was 0/4 and the “6 Hz 100 0.5 h (animals protected/tested)” value [3] was 1/4. For the same molecule, the “6 Hz 100 2 h (animals protected/tested)” value [3] was 1/4.

For `CCOC(=O)C1[C@@H]2[C@@H](O)[C@@H]3O[C@H](c4ccc(C(C)C)cc4)OC[C@H]3O[C@H]12` (stereo partly drawn) [Compound 20b, Ethyl (2R,4aR,5aS,6aR,7R,7aS)-7-hydroxy-2-[4-(propan-2-yl)phenyl]hexahydro-4H-cyclopropa[5.6]pyrano[3,2-d][1,3]dioxine-6-carboxylate], the “minimal motor impairment” value [1] was “minimal motor impairment at the same time point”, the “TOX 30 0.5 h (animals toxic/tested)” value [1] was 1/4 and the “TOX 30 4 h (animals toxic/tested)” value [1] was 0/2. For the same molecule, the “TOX 100 0.5 h (animals toxic/tested)” value [1] was 0/8, the “TOX 100 4 h (animals toxic/tested)” value [1] was 0/4 and the “TOX 300 0.5 h (animals toxic/tested)” value [1] was 0/4. For the same molecule, the “TOX 300 4 h (animals toxic/tested)” value [1] was 0/2, the “scMET 30 0.4 h (animals protected/tested)” value ([2]; 30 mg/kg, 0.4 h) was 0/1 and the “scMET 30 0.5 h (animals protected/tested)” value ([2]; 30 mg/kg, 0.5 h) was 0/1. The “scMET 100 0.4 h (animals protected/tested)” value ([2]; 100 mg/kg, 0.4 h) was 0/1, the “scMET 100 0.5 h (animals protected/tested)” value ([2]; 100 mg/kg, 0.5 h) was 0/1 and the “scMET 300 0.4 h (animals protected/tested)” value ([2]; 300 mg/kg, 0.4 h) was 0/1. For the same molecule, the “scMET 300 0.5 h (animals protected/tested)” value ([2]; 300 mg/kg, 0.5 h) was 0/1, the “MES 30 0.5 h (animals protected/tested)” value (MES-induced seizures; 30 mg/kg, 0.5 h) was 1/5 and the “MES 30 4 h (animals protected/tested)” value (MES-induced seizures; 30 mg/kg, 4 h) was 0/1. The “MES 100 0.5 h (animals protected/tested)” value (MES-induced seizures; 100 mg/kg, 0.5 h) was 0/7, the “MES 100 4 h (animals protected/tested)” value (MES-induced seizures; 100 mg/kg, 4 h) was 0/3 and the “MES 300 0.5 h (animals protected/tested)” value (MES-induced seizures; 300 mg/kg, 0.5 h) was 0/1. The “MES 300 4 h (animals protected/tested)” value (MES-induced seizures; 300 mg/kg, 4 h) was 0/1 and the “anticonvulsant activity” value (seizures) was “showed activity”.

For `CCOC(=O)C1[C@@H]2[C@@H](O)[C@@H]3O[C@H](c4ccc(F)cc4F)OC[C@H]3O[C@H]12` (stereo partly drawn) [Compound 20d, Ethyl (2R,4aR,5aS,6aR,7R,7aS)-2-(2,4-difluorophenyl)-7-hydroxyhexahydro-4H-cyclopropa[5,6]pyrano[3,2-d][1,3]dioxine-6-carboxylate], the “minimal motor impairment” value [1] was “minimal motor impairment at the same dose”, the “TOX 30 0.5 h (animals toxic/tested)” value [1] was 1/4 and the “TOX 30 4 h (animals toxic/tested)” value [1] was 0/2. For the same molecule, the “TOX 100 0.5 h (animals toxic/tested)” value [1] was 1/8, the “TOX 100 4 h (animals toxic/tested)” value [1] was 0/4 and the “TOX 300 0.5 h (animals toxic/tested)” value [1] was 2/4. For the same molecule, the “TOX 300 4 h (animals toxic/tested)” value [1] was 1/2, the responders at 30 mg/kg [2, 4] was 0% and the responders at 30 mg/kg [2, 5] was 0%. It also gave a responders at 100 mg/kg [2, 6] of 0%, a responders at 100 mg/kg [2, 7] of 0% and a responders at 300 mg/kg [2, 8] of 0%. The responders at 300 mg/kg [2, 9] was 0%, the responders at 30 mg/kg (MES-induced seizures; [10]) was 0% and the responders at 30 mg/kg (MES-induced seizures; [11]) was 0%. The responders at 100 mg/kg (MES-induced seizures; [12]) was 0%, the responders at 100 mg/kg (MES-induced seizures; [13]) was 0% and the responders at 300 mg/kg (MES-induced seizures; [14]) was 0%. For the same molecule, the responders at 300 mg/kg (MES-induced seizures; [15]) was 0%, the “anticonvulsant activity” value (seizures) was “exhibited activity” and the “6 Hz 100 0.25 h (animals protected/tested)” value [3] was 1/4. For the same molecule, the “6 Hz 100 0.5 h (animals protected/tested)” value [3] was 0/4 and the “6 Hz 100 2 h (animals protected/tested)” value [3] was 0/4.
